One data set has as its target T1, mGlu4 receptor (Homo sapiens, UniProt Q14833).
T1 construct: mGlu4 receptor NM_000841, mGlu7 receptor NM_000844.2, and mGlu8 receptor NM_000845; expressed in transfected cells; host or cells: T-REx 293
The data set can be described thus: forskolin-induced cAMP assay, agonist mode, T-REx 293 cells. It counts as cell-based. On the procedure:
The compounds were tested in the agonist, PAM (in the presence of EC20 concentration of L-Glu) or NAM (with EC80 of L-Glu) modes of forskolin-induced cAMP using T-REx 293 cells expressing the protein of a given receptor.
Determination of the intracellular cAMP through a homogeneous time-resolved fluorescence (HTRF) cAMP dynamic 2 kit from Cisbio (Codolet, France) was described previously by Chruścicka et al.[91]. Briefly, cells were grown in DMEM supplemented with 10% foetal bovine serum (FBS) (tetracycline free). Forty-eight hours before the experiments, mGlu receptor expression was induced by the addition of 0.75 µg/mL tetracycline. Twenty hours before the experiment, FBS and L-Glu were removed from the medium. Thereafter, the cells were scraped and centrifuged. A cell pellet was suspended in Hanks-HEPES (130 mM NaCl, 5.4 mM KCl, 1.8 mM CaCl2, 0.8 mM MgSO4, 0.9 mM NaH2PO4, 20 mM HEPES, and 3.25 mM glucose; pH 7.4). Then, the cell suspension was incubated in the presence of 10 µM forskolin (or 3 µM forskolin for mGlu7 receptor), the agonist L-glutamate and a compound for 5 min. Next, 10 µl of the cell suspension was mixed with 5 µl of cAMP-d2 conjugate and 5 µL of anti-cAMP cryptate conjugate. After 1 h of incubation at rt, the fluorescence at 620 nm and 665 nm was read (Tecan Infinite M1000). The results were calculated as the 665 nm/620 nm ratio multiplied by 10^4. Each sample was prepared in triplicate.
(Cyclic AMP is a second messenger, typically raised through Gs and lowered through Gi signalling.)

Data set [1] has as its system Salmonella typhimurium strains TA98 and TA100. Format: cell-based. Particulars: TA98 and TA100, with and without S9, ≤ 30 µM. On the procedure:
The primary assessment of the cardiotoxic risk and mutagenic potential of the six selected 1,2,4-oxadiazole derivatives was performed in the hERG channel assay and the mini-AMES test, respectively. The mutagenicity potential was determined in strains TA98 (frameshift mutation) and TA100 (base-pair substitution) of Salmonella typhimurium in the presence and absence of an exogenous metabolic activation system (rat liver S9 fraction) containing mammalian microsomal enzymes.
The Ames microplate fluctuation protocol (MPF) assay was performed with Salmonella typhimurium strains TA98 and TA100, […]. The bacterial strain as well as the exposure and indicator medium were obtained from Xenometrix AG (Allschwil, Switzerland). […] After the addition of indicator medium, each well of the 24-well plate was aliquoted into 48 wells of a 384-well plate.
The occurrence of reversion events to histidine prototrophy was observed as the growth of bacteria in the indicator medium without histidine after 72 h of incubation at 37 °C. Bacterial growth in 384-well plates was visualised by a colour change of medium from violet to yellow due to the addition of pH indicator dye. The absorbance was measured with a microplate reader (EnSpire) at 420 nm. The reference mutagen NQNO (0.5 mM) was used as a positive control in the experiments. The medium control baseline (MCB) was calculated, as derived from the mean number of revertants in the medium control plus one standard deviation.
AMES test was conducted with two Salmonella typhimurium strains TA98 and TA100 in the presence or absence of liver homogenate S9 to simulate the metabolic conversions of tested compounds with liver enzymes. The AMES MPF 98/100 assay from Xenometrix was performed as described by the supplier. Data were analysed with the AMES MPF calculation […]
(also on this page, place not known: TA10 cal culation TA98 - S9 Revertants TA98 + S9 Revertants - S9 Revertants TA100 + S9 Revertants TA98 - S9 Revertants TA98 + S9 Revertants TA100 - S9 Revertants 0 TA100 + S9 Revertants)

Another data set addresses T2, CYP2C19 (Homo sapiens, UniProt P33261).
T2 construct: purchased Corning
Put plainly: inhibition of cytochrome P450 isoform activity (fluorescence screening). Format: biochemical. Particulars: screening at 1.1, 3.3 and 10 µM. As for the experimental part: (§1) The assays for cytochrome P450 inhibition facilitate the identification of drug candidates with a lower potential for drug-drug interactions. In vitro experiments conducted to determine whether a drug inhibits a specific CYP enzyme involve an incubation of the drug with probe substrates for the CYP enzymes.
(§2) Recombinant cytochrome P450 isoforms available for the assay: CYP1A2, CYP2B6, CYP2C9, CYP2C19, CYP2D6 and CYP3A4 isoform with various probe substrates enabling fluorescence detection.
(§3) The examined compound was prepared as a 10 mM stock solution in DMSO. The following three concentrations of the test compound were used for screening determination: 1.1, 3.3 and 10 μM. […] Plates filled with solution of cofactors (NADP, G6P, MgCl2, G6PDH) as well as examined compound were scanned with a fluorescence plate reader in order to eliminate false results originating from autofluorescence of the test compounds. […] At the end of the incubation, the reaction was stopped and the fluorescence of the product was determined continuously with the specific for every product excitation as well as emission values with the use of multiwell plate scanner equipped with fluorescence measurement (Fluorescence EnSpire Multimode Plate Reader).

For a further data set, the target named is T3, CYP2C9 (Homo sapiens, UniProt P11712).
T3 construct: purchased Corning
Described as above. Particulars: screening at 1.1, 3.3 and 10 µM. Format: biochemical. As for the experimental part: as §1, §2, §3

pEC50, pIC50: −log10 of the molar value.

T1 sequence (Q14833 33-912): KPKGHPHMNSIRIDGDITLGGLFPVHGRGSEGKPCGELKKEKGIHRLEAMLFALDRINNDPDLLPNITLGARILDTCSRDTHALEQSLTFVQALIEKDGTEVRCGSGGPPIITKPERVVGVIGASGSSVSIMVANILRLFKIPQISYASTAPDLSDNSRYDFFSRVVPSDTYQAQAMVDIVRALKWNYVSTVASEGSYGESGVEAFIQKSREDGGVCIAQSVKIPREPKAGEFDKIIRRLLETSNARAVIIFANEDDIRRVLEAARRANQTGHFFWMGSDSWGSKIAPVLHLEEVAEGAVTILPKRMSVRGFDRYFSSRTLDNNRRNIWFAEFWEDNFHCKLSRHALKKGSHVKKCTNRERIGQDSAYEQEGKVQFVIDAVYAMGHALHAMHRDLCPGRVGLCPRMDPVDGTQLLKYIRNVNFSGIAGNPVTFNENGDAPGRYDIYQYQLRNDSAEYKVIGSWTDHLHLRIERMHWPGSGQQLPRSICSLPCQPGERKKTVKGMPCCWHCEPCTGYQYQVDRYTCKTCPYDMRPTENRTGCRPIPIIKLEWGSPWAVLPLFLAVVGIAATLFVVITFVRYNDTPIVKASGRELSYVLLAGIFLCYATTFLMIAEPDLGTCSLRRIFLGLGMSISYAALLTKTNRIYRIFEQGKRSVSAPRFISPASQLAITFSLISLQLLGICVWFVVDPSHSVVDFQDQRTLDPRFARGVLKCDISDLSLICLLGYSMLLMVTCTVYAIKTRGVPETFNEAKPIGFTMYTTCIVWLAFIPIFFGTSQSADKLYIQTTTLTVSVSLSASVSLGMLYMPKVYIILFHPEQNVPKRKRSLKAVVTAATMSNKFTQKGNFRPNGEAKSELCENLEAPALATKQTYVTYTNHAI
T2 sequence (P33261 whole entry): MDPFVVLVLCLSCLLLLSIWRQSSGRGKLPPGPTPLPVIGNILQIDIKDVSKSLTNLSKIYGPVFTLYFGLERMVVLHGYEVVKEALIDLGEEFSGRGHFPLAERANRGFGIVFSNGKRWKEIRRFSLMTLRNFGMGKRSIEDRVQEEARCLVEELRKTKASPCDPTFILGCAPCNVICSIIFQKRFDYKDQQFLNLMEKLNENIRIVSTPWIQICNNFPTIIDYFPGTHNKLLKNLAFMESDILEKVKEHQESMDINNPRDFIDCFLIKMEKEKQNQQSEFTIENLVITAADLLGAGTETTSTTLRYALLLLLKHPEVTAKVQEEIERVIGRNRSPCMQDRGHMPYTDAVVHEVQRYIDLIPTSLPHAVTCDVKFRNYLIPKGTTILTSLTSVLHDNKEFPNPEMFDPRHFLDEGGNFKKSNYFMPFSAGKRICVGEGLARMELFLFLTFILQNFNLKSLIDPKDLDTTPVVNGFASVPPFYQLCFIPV
T3 sequence (P11712 whole entry): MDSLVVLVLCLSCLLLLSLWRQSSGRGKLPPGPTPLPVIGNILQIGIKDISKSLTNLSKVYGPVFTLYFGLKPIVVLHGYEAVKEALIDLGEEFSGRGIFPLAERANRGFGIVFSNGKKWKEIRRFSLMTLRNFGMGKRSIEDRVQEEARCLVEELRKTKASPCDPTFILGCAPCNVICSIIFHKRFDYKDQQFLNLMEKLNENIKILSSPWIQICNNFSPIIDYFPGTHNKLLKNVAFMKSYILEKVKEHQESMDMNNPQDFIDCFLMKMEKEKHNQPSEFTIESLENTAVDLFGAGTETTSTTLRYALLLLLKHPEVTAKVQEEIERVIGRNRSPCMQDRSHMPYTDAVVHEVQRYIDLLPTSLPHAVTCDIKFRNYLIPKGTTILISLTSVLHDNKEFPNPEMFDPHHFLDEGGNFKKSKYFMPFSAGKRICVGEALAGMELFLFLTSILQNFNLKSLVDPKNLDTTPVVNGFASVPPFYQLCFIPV

Regarding `COc1cc(NC(=O)c2ccccn2)ccc1-c1noc(-c2ccccc2Cl)n1` [Compound 34], the pEC50 (in general, the negative decadic logarithm of the EC50, by convention in mol/L) on mGlu4 receptor was 5.95. The “mutagenic activity (mini-AMES)” value in data set [1] is on record as “no mutagenic potential”.

`COc1cc(NC(=O)c2ccccn2)ccc1-c1noc(-c2ccccc2F)n1` [Compound 37] showed a pEC50 at mGlu4 receptor of 5.40. Besides, in data set [1], the “mutagenic activity (mini-AMES)” value is “no mutagenic potential”.

As for `O=C(Nc1ccc(-c2noc(-c3ccccc3Cl)n2)c(Cl)c1)c1ccccn1` [Compound 52, N-(3-chloro-4-(5-(2-chlorophenyl)-1,2,4-oxadiazol-3-yl)phenyl)picolinamide], in data set [1], the “mutagenic activity (mini-AMES)” value is “no mutagenic potential”. The pIC50 at CYP2C19 and against CYP2C9 was 5.00 to 5.48 in each case.

As to `O=C(Nc1ccc(-c2noc(-c3ccccc3Cl)n2)c(C(F)(F)F)c1)c1ccccn1` [Compound 60], the “mutagenic activity (mini-AMES)” value in data set [1] was “no mutagenic potential”.

Values taken from publication PMC8667925, “New 1,2,4-oxadiazole derivatives with positive mGlu4 receptor modulation activity and antipsychotic-like properties” (Journal of Enzyme Inhibition and Medicinal Chemistry, 2021).
